“And” between values parts separate entries of the source, which are not always exact repeats. Equal values may be shown once. Read-outs that look alike come from different tables or passages of the source.
Legend:
Torpedo nAChR [1] = target: T1, Torpedo nAChR (Tetronarce californica, UniProt P02710+P02712+P02714+P02718); assay: biochemical; assay type: binding
[2] = target: T2, Na^+/K^+-ATPase α subunit (Tetronarce californica, UniProt P05025); assay type: binding, Torpedo californica
Torpedo nAChR [3] = target: T1, Torpedo nAChR; assay: equilibrium binding of the ion channel blocker [^3H]tetracaine
Torpedo nAChR [4] = target: T1, Torpedo nAChR; assay: equilibrium binding of the ion channel blocker [^3H]PCP
Torpedo nAChR [5] = target: T1, Torpedo nAChR; assay: equilibrium binding of [^3H]ACh; details: IC50, inhibition of [^3H]ACh binding
Torpedo nAChR [6] = target: T1, Torpedo nAChR; assay type: binding
[7] = target: T2, Na^+/K^+-ATPase α subunit; assay type: binding, Torpedo californica; remark: listed apart in the source
[8] = Resting vs. Desensitized, −Carb (no other drugs)

T1 sequence (P02718 22-522): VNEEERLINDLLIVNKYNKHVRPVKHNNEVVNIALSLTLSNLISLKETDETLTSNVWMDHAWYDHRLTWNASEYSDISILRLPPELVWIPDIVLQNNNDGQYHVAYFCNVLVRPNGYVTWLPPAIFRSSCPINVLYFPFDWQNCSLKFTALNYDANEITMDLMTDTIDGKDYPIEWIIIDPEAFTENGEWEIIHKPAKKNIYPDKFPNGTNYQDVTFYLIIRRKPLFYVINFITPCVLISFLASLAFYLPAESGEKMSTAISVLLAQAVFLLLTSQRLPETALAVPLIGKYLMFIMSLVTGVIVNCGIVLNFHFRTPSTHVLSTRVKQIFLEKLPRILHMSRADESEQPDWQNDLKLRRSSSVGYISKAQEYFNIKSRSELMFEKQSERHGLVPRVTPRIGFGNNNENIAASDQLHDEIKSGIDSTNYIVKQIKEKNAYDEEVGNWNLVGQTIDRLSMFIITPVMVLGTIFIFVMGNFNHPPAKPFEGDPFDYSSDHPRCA
T1 sequence (P02714 18-506): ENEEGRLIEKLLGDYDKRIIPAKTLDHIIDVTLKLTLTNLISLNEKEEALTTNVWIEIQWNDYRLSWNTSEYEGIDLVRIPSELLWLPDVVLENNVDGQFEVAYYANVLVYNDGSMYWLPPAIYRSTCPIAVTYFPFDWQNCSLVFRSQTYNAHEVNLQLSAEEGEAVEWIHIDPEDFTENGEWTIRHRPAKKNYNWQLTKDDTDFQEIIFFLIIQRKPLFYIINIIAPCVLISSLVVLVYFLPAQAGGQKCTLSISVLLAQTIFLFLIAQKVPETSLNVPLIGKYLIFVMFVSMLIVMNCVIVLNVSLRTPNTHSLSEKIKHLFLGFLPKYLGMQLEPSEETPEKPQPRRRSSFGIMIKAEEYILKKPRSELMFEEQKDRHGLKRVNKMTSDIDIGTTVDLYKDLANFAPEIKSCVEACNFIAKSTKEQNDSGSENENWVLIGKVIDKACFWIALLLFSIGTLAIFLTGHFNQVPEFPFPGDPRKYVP
T1 sequence (P02712 25-493): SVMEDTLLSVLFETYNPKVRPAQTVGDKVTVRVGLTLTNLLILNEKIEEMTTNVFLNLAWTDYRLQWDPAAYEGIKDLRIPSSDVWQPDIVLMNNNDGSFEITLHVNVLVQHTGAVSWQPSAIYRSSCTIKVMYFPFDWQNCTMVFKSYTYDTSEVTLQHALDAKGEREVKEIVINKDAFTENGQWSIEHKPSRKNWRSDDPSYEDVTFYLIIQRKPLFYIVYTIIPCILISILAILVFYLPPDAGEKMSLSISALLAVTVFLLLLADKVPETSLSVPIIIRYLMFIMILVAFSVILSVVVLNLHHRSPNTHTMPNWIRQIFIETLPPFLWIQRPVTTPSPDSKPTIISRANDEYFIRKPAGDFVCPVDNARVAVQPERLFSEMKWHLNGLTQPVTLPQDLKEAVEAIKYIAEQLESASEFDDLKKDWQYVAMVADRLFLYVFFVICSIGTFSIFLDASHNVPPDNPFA
T1 sequence (P02710 25-461): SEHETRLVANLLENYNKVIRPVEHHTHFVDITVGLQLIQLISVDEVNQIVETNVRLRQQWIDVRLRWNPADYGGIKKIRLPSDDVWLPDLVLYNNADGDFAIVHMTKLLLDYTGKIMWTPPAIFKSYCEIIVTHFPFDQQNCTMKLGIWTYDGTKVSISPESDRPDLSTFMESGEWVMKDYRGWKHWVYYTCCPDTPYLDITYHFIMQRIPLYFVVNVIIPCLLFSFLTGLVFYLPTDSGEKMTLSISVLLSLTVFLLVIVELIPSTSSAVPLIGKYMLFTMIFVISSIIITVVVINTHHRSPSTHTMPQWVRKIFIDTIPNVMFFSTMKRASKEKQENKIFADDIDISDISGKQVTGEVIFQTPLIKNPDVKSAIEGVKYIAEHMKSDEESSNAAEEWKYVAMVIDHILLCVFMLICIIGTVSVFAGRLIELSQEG
T2 sequence (P05029 whole entry, other chains not shown): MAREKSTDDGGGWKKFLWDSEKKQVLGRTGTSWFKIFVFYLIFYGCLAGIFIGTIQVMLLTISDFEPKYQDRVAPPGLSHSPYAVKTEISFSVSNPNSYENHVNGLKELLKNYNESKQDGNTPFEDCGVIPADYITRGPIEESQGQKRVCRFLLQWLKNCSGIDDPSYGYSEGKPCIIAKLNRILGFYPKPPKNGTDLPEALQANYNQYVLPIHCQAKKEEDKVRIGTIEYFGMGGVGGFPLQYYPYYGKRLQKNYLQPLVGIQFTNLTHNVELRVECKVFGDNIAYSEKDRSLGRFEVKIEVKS

In the case of α-bungarotoxin [α-BgTx], the “alteration of [^3H]physostigmine photoincorporation in nAChR β subunit” value (Torpedo nAChR [1]) is reported as less than 5%, the “change of efficiency of [^3H]physostigmine photolabeling at δTyr-439” value (shortened to “change of efficiency … at δTyr-439”) (Torpedo nAChR [1]) is reported as less than 20% and the “decrease of [^3H]physostigmine photolabeling of nAChR δ subunit” value (Torpedo nAChR [1]) is reported as ~ 10%. For the same compound, the “effect on [^3H]physostigmine photolabeling of γTyr-105” value (Torpedo nAChR [1]) was “unchanged”, the “inhibition of [^3H]physostigmine photolabeling of αTyr-190, αCys-192 and αTyr-198” value (Torpedo nAChR [1]) was greater than 85% and the “inhibition of [^3H]physostigmine photolabeling of αV8-20 fragment” value (Torpedo nAChR [1]) was greater than 75%. The “inhibition of [^3H]physostigmine photolabeling of γTyr-111 and γTyr-117” value (Torpedo nAChR [1]) was 50–60%, the “reduction of [^3H]physostigmine photoincorporation into nAChR α subunit” value (Torpedo nAChR [1]) was 40% and the “reduction of [^3H]physostigmine photoincorporation into nAChR γ subunit” value (Torpedo nAChR [1]) was 20%. The “reduction of [^3H]physostigmine photolabeling of δTyr-172” value (Torpedo nAChR [1]) was 70%, the “reduction of efficiency of [^3H]physostigmine photolabeling of δTyr-212” value (Torpedo nAChR [1]) was ~ 25% and the “alteration of [^3H]physostigmine photoincorporation in Na^+/K^+-ATPase α subunit” value [2] was less than 5%.
With [^3H]physostigmine the “efficiency of photolabeling at δTyr-439” value (Torpedo nAChR [1]) was 1 cpm/pmol, the “photolabeling, if it occurred, of αLys-125” value (Torpedo nAChR [1]) was “less than 0.2 cpm/pmol” and the “photolabeling, if it occurred, of αTyr-127” value (Torpedo nAChR [1]) was less than 0.05 cpm/pmol. The “photolabeling of δTyr-172” value (Torpedo nAChR [1]; +Carb 1 mM) was 4.9 cpm/pmol, the “photolabeling of δTyr-172” value (Torpedo nAChR [1]; +αBgTx 8 μM) was 1.6 cpm/pmol and the “photolabeling of δTyr-172” value (Torpedo nAChR [1]; Carb-independent) was 4 cpm/pmol. For the same compound, the “photoincorporation into αY190 (Site IV, core aromatics)” value (Torpedo nAChR [1]; [8]) was 10 cpm/pmol, the “photoincorporation into αY198 (Site IV, core aromatics)” value (Torpedo nAChR [1]; [8]) was 20 cpm/pmol and the “photoincorporation into γY111 (Site I)” value (Torpedo nAChR [1]; [8]) was 9 cpm/pmol. For the same compound, the “photoincorporation into γY117 (Site I)” value (Torpedo nAChR [1]; [8]) was 2 cpm/pmol, the “photolabeling of αCys-192” value (Torpedo nAChR [1]; absence of other drugs) was 10 cpm/pmol and the “photolabeling of δTrp-57” value (Torpedo nAChR [1]; data not shown) was 0.8 cpm/pmol. The “photolabeling, if it occurred, of adjacent aromatic amino acids (δTrp-64, δTyr-65)” value (Torpedo nAChR [1]; data not shown) was less than 0.2 cpm/pmol, the “photolabeling of δTyr-172” value (Torpedo nAChR [1]; −Carb) was 3.4 cpm/pmol and the “photolabeling of δTyr-172” value (Torpedo nAChR [1]; −αBgTx) was 5 cpm/pmol.
For `CNC(=O)Oc1ccc2c(c1)[C@]1(C)CCN(C)[C@@H]1N2C` [physostigmine], the “decrease of [^3H]physostigmine photolabeling in the nAChR subunits” value (Torpedo nAChR [1]) was 25–40%, the IC50 (Torpedo nAChR [3]) was 5000 µM and the “decrease of [^3H]physostigmine photolabeling in Na^+/K^+-ATPase α subunit” value [2] was less than 5%. The IC50 (Torpedo nAChR [4]; IC50, inhibition of [^3H]PCP binding) was 1000 µM and 900 µM and the IC50 (Torpedo nAChR [5]) was greater than 10000 µM.
For `C[N+](C)(C)CCOC(N)=O.[Cl-]` [Carb, carbamylcholine], the “alteration of [^3H]physostigmine photoincorporation in nAChR β subunit” value (Torpedo nAChR [1]) was less than 5%, the “change of efficiency … at δTyr-439” value (Torpedo nAChR [1]) was less than 20% and the “effect on [^3H]physostigmine photolabeling of γTyr-105” value (Torpedo nAChR [1]) was “enhanced”. The “effect on efficiency of [^3H]physostigmine photolabeling of δTyr-212” value (Torpedo nAChR [1]) was “doubled”, the “increase of [^3H]physostigmine photolabeling of nAChR δ subunit” value (Torpedo nAChR [1]) was ~ 10% and the “inhibition of [^3H]physostigmine photolabeling of αTyr-93” value (Torpedo nAChR [1]) was greater than 90%. For the same compound, the “inhibition of [^3H]physostigmine photolabeling of αTyr-190, αCys-192 and αTyr-198” value (Torpedo nAChR [1]) was greater than 85%, the “inhibition of [^3H]physostigmine photolabeling of αV8-20 fragment” value (Torpedo nAChR [1]) was greater than 75% and the “inhibition of [^3H]physostigmine photolabeling of γTyr-111 and γTyr-117” value (Torpedo nAChR [1]) was 50–60%. The “reduction of [^3H]physostigmine photoincorporation into nAChR α subunit” value (Torpedo nAChR [1]) was 40%, the “reduction of [^3H]physostigmine photoincorporation into nAChR γ subunit” value (Torpedo nAChR [1]) was 10% and the “alteration of [^3H]physostigmine photoincorporation in Na^+/K^+-ATPase α subunit” value [2] was less than 5%. The “inhibition of [^3H]galanthamine photolabeling in the α subunit” value (Torpedo nAChR [6]) was 80%, the “inhibition of [^3H]galanthamine photolabeling of αTyr-190 and αTyr-198” value (Torpedo nAChR [6]) was greater than 95% and the “reduction of [^3H]galanthamine photolabeling in β subunit” value (Torpedo nAChR [6]) was less than 5%. For the same compound, the “reduction of [^3H]galanthamine photolabeling in γ and δ subunits” value (Torpedo nAChR [6]) was ~ 25%.
With `COc1ccc2c3c1O[C@H]1C[C@@H](O)C=C[C@@]31CCN(C)C2` [galanthamine] the “change of efficiency … at δTyr-439” value (Torpedo nAChR [1]) was less than 20%, the “reduction of [^3H]physostigmine photoincorporation into the nAChR subunits” value (Torpedo nAChR [1]) was “to the same extent as 100 μM physostigmine” and the inhibition at 300 µM (Torpedo nAChR [1]; read-out: inhibition of [^3H]physostigmine photolabeling of γTyr-105, γTyr-111 and γTyr-117) was roughly 75%. For the same compound, the inhibition at 300 µM (Torpedo nAChR [1]; read-out: inhibition of [^3H]physostigmine photolabeling of δTyr-212) was roughly 50%, the inhibition at 3000 µM (Torpedo nAChR [3]; read-out: inhibition of [^3H]tetracaine binding) was 10% and the “reduction of [^3H]galanthamine photolabeling of Na^+/K^+-ATPase α subunit” value [7] was less than 5%. The inhibition at 3000 µM (Torpedo nAChR [4]; read-out: inhibition of [^3H]PCP binding) was 20%, the “reduction of [^3H]galanthamine photolabeling of each nAChR subunit” value (Torpedo nAChR [6]) was ~ 25% and the IC50 (Torpedo nAChR [5]) was 3000 µM and 2800 µM.

— publication PMC3542985 (The Journal of neuroscience : the official journal of the …, 2013)
